The source of these data is PubChem BioAssay (NCI).

The test system of the assay is MDA-MB-468 breast. The experiment in a line: DTP human tumour cell line panel, 48 h.

Several values for one entry are separate records, joined by “and”; a condition that tells them apart may be missing. Equal entries are not always repeated.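 Values below derive from 48-hour exposures of cells grown in 96-well plates, with endpoints linearly interpolated between the two concentrations bracketing the appropriate inhibition level. The concentration for 50% growth inhibition is given as GI50. TGI marks complete inhibition of growth.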

Regarding `CCc1nc(C(N)=O)c(Nc2ccc(N3CCC(N4CCN(C)CC4)CC3)c(OC)c2)nc1NC1CCOCC1`, the GI50 (in general, the concentration giving 50% growth inhibition) is 12.2 µM and 14 µM; the TGI (in general, the concentration giving total growth inhibition) is 27.7 µM and > 2.37 µM and 31.8 µM.
Turning to `Nc1ccc2cc3ccc(N)cc3nc2c1`, the GI50 is 0.531 µM and the TGI worked out at 2.22 µM.
As to `Cn1c(=O)c(Cc2ccccc2F)cc2cnc(NC3CCOCC3)nc21`, the GI50 is over 25 µM and the TGI was over 25 µM.
For `COc1cc2[nH]c(C(=O)c3cc(OC)c(OC)c(OC)c3)c(N)c2cc1C#CC1CC1`, the GI50 was 2.08 µM and the TGI worked out at 8.28 µM.
Turning to `COC(=O)[C@H]1[C@@H](O)[C@@]2(O)c3c(OC)cc(OC)cc3O[C@@]2(c2ccc(OC)cc2)[C@@H]1c1ccccc1`, the GI50 was 0.00783 µM and the TGI turned out to be 0.116 µM.
With `COc1cccc2c(=O)c3c(sc12)c(N1CCNCC1)nc1ccccc13`, the GI50 was 1.66 µM and the TGI was found to be 3.3 µM.
Take `Cc1ccc2[nH]c(O)c(N=Nc3ccc(S(N)(=O)=O)cc3)c2c1`: the GI50 was 6.67 µM and the total growth inhibition concentration (TGI) was over 25 µM.
Regarding `Cc1ccc(-c2nc3ccc(Cl)cc3c(=O)n2N2C(=O)CSC2c2ccccc2Cl)cc1` (configuration not stated), the GI50 is 57.6 µM and the concentration for total growth inhibition (TGI) is over 100 µM.
As to `CCOC(=O)c1sc(NCC(=O)Nc2cccc([N+](=O)[O-])c2)c(C(=O)OCC)c1C`, the GI50 was 0.67 µM and the TGI turned out to be 2.23 µM.
On to `CN(C)C(=O)[C@H](O)[C@H](Cc1ccccc1)NC(=O)c1cc2cc(Cl)ccc2[nH]1`, for which the GI50 is 20.1 µM and the TGI is 77.6 µM.
For `O=S(=O)(Nc1cc(Sc2cccc3cccnc23)c(O)c2ccccc12)c1ccccc1`, the GI50 is 1.29 µM and the TGI was found to be 3.2 µM.
On to `Cc1[nH]c2ccccc2c(=O)c1CC=C(Cl)Cl`, for which the GI50 is 18.8 µM and the TGI was over 100 µM.
With `COc1ccc(CCN2COc3c([C@@H](C)CCC=C(C)C)ccc(C)c3C2)cc1OC`, the GI50 is 1.23 µM and the TGI was found to be 2.95 µM.
Take `COc1cc(C(=O)c2cc(C)c3[nH]c4ccc(C)cc4c3c2C)cc(OC)c1OC`: the 50% growth inhibitory concentration (GI50) was under 0.01 µM and the TGI came out at 3.68 µM.
The matching figures for `COc1cc(/C=C/c2cc(/C=C/c3ccc(O)c(OC)c3)n(C(=O)Nc3ccc(C)cc3C)n2)ccc1O`: 0.242 µM and 0.75 µM.
Take `Nc1nc(F)nc2c1ncn2C1OC(CO)C(O)C1O` (configuration not stated): the GI50 is over 85.6 µM and the TGI is over 100 µM.
Take `CCn1c(SCc2ccc(C)cc2)nnc1-c1nn(-c2ccc(Cl)cc2Cl)c(-c2ccc(Cl)cc2)c1C`: the GI50 is 0.623 µM and the TGI stood at 10.6 µM.
The matching figures for `CN(C)CCN1C(=O)c2ccc3c4c(ccc(c24)C1=O)C(=O)N(CCN=C=S)C3=O`: 0.0263 µM and 0.101 µM.
`O=C(/C=C\c1ccc(NCc2ccc(C(=O)O)cc2)cc1)CCl`: the GI50 was 7.36 µM and the TGI was 23.8 µM.
The matching figures for `CC/C=C\C[C@H]1C/C=C2/C(=O)C=C[C@@H]2C/C=C\CCCC(=O)O1`: 0.854 µM and 2.73 µM.
The matching figures for `COc1ccc(/C=C/C(=O)C(CC2CCC2)C(=O)/C=C/c2ccc(OC)c(OC)c2)cc1OC`: 1.59 µM and 3.69 µM.
As to `CCCCCCCCCCCCCCCCCCOc1ccccc1CC(=O)OCC[N+]1(C)CCCC1`, the GI50 is 1.7 µM and the TGI is 4.51 µM.
For the compound `O=C1Nc2ccc(F)cc2/C1=C/c1ccc[nH]1`, the concentration for 50% growth inhibition (GI50) is 0.203 µM and the total growth inhibition concentration (TGI) worked out at 1.5 µM.
The matching figures for `CC(C)C[C@H](NC(=O)/C=C/Cn1ccc2ccccc2c1=O)B(O)O`: 0.681 µM and 4.71 µM.
With `CC1(C)[C@@H](OC(N)=O)[C@H]2O[C@H]2[C@]2(C=O)[C@H]3CC[C@]4(C)[C@@H](c5ccc(=O)oc5)[C@@H](Cl)C[C@]4(O)C3=CC[C@@H]12`, the GI50 was 0.0062 µM and the concentration for total growth inhibition (TGI) was 0.0178 µM.
Regarding `Nc1ccc(-c2nc3ccc(Cc4ccc5nc(-c6ccc(N)cc6)[nH]c5c4)cc3[nH]2)cc1`, the GI50 is 1.47 µM and the TGI stood at 2.9 µM.
On to `COc1ccc(-c2nn(-c3ccc(NC(=O)Nc4cc(C(F)(F)F)cc(C(F)(F)F)c4)cc3)cc2-c2ccncc2)cc1Cl`, for which the GI50 is 1.8 µM and the concentration for total growth inhibition (TGI) turned out to be 6 µM.
In the case of `COc1ccc(C(=O)COc2ccc(/C=C3\COc4ccc(OC)cc4C3=O)cc2)cc1`, the GI50 was 18 µM and the TGI was 88.2 µM.
With `CCOc1cc(C(C)(C)C)ccc1C1=N[C@@](C)(c2ccc(Cl)cc2)[C@@](C)(c2ccc(Cl)cc2)N1C(=O)N1CCN(CCCS(C)(=O)=O)CC1`, the GI50 is 2.53 µM and the TGI worked out at 7.92 µM.
`C[C@H](O)C(=O)N1CCC(CCn2c(Sc3cc4c(cc3Br)OCO4)nc3c(N)ncnc32)CC1`: the GI50 is 0.482 µM and the TGI turned out to be 2.92 µM.
The corresponding values for `C#CCOc1cccc(-c2nc(N)nc(Nc3ccccc3SSc3ccccc3Nc3nc(N)nc(-c4cccc(OCC#C)c4)n3)n2)c1` are over 33.3 µM and over 33.3 µM.
Regarding `Cc1ncc(CCCN(C)C)cc1Nc1ncc2c(n1)-c1ccc(C(F)(F)F)cc1NC(=S)C2`, the concentration for 50% growth inhibition (GI50) is under 0.0212 µM and the concentration for total growth inhibition (TGI) was found to be 1.58 µM.
The matching figures for `O=c1cc(NC2CCN(CCCc3ccccc3)CC2)c2cc(Cl)ccc2o1`: 5.82 µM and 21.8 µM.
On to `COc1ccc(/C=N/NC(=O)c2[nH]c3ccc(Br)cc3c2-c2ccccc2)o1`, for which the GI50 was 0.0588 µM and the concentration for total growth inhibition (TGI) amounted to 3.36 µM.
In the case of `CC1=C[C@H]2c3c(c(O)c(O)c4oc(-c5ccccc5)cc(=O)c34)[C@H](c3cc(O)c(O)c4oc(-c5ccccc5)cc(=O)c34)[C@H]2C(C)(C)C1`, the GI50 is 1.38 µM and the TGI was found to be 4.76 µM.
In the case of `CC(C)(C[C@H]1CN(S(=O)(=O)c2cccc(C(F)(F)F)c2)c2cc(-c3cc(F)cc(OC(F)F)c3)ccc2O1)C(=O)O`, the GI50 was 3.41 µM and the TGI turned out to be 25.1 µM.
